Where a name gives a salt, the structure may show the parent alone. Read-outs that look alike come from different tables or passages of the source.
How the values were obtained:
[1] = molecular target: T1, neuronal nicotinic acetylcholine receptors (Rattus norvegicus, UniProt P09483+P12390); assay: [3H]-cytisine binding to neuronal nicotinic acetylcholine receptors, whole rat brain membranes
T1 construct: crude synaptic membrane preparations from whole rat brain; from tissue; host or cells: whole rat brain, crude synaptic membranes
T1 sequence (P09483 31-630): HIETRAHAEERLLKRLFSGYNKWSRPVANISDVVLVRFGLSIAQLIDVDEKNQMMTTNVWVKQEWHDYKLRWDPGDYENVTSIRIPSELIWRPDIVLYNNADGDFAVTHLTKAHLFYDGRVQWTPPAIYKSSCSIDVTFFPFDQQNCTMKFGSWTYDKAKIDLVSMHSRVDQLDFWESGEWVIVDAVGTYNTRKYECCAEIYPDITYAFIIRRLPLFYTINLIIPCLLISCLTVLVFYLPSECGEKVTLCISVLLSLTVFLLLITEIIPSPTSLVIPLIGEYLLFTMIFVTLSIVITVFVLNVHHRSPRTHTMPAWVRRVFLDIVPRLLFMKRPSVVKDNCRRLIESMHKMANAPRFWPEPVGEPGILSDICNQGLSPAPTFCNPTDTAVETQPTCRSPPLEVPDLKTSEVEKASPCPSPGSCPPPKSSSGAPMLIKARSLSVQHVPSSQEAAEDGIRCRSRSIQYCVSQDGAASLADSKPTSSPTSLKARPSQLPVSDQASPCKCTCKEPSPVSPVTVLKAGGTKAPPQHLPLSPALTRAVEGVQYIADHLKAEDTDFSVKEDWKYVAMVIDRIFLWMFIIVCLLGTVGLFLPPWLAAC
T1 sequence (P12390 25-500): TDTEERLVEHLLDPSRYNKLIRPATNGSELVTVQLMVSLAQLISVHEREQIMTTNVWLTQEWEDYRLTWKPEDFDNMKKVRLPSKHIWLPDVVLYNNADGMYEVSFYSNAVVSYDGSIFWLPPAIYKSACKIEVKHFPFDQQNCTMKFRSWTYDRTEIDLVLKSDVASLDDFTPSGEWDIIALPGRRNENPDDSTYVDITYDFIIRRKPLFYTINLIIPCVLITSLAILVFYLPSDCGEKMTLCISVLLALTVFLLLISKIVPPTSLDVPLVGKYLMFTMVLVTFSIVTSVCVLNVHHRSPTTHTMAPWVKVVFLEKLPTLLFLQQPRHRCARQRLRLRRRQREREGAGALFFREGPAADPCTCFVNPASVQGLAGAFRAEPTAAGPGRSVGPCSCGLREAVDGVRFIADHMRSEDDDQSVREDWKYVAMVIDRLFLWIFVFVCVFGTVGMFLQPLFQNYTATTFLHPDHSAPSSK
Protocol: Protocol for Determination of Nicotinic Acetylcholine Channel Receptor Binding Potencies of Ligands
Binding of [^3H]-cytisine ([^3H]-CYT) to neuronal nicotinic acetylcholine receptors was accomplished using crude synaptic membrane preparations from whole rat brain (Pabreza et al., Molecular Pharmacol., 1990, 39:9). Washed membranes were stored at −80° C. prior to use. Frozen aliquots were slowly thawed and resuspended in 20 volumes of buffer (containing: 120 mM NaCl, 5 mM KCl, 2 mM MgCl2, 2 mM CaCl2 and 50 mM Tris-Cl, pH 7.4 @4° C.). After centrifuging at 20,000×g for 15 minutes, the pellets were resuspended in 30 volumes of buffer. Homogenate (containing 125-150 μg protein) was added to triplicate tubes containing concentrations of test compound and [^3H]-CYT (1.25 nM) in a final volume of 500 μL. Samples were incubated for 60 minutes at 4° C., then rapidly filtered through Whatman GF/B filters presoaked in 0.5% polyethyleneimine using 3×4 mL of ice-cold buffer. The filters are counted in 4 mL of Ecolume® (ICN). Nonspecific binding was determined in the presence of 10 μM (−)-nicotine and values were expressed as a percentage of total binding.

[2] = molecular target: T2, peripheral ganglionic receptors (Homo sapiens, UniProt P30926+P32297); assay: 86Rb+ flux activation in IMR-32 human neuroblastoma cells; assay type: cell-based; conditions: 1 μM compound, % of maximum response to (S)-nicotine
T2 construct: Cells of the IMR-32 human neuroblastoma clonal cell line (ATCC, Rockville, Md.); host or cells: IMR-32 human neuroblastoma cells
T2 sequence (P32297 32-505): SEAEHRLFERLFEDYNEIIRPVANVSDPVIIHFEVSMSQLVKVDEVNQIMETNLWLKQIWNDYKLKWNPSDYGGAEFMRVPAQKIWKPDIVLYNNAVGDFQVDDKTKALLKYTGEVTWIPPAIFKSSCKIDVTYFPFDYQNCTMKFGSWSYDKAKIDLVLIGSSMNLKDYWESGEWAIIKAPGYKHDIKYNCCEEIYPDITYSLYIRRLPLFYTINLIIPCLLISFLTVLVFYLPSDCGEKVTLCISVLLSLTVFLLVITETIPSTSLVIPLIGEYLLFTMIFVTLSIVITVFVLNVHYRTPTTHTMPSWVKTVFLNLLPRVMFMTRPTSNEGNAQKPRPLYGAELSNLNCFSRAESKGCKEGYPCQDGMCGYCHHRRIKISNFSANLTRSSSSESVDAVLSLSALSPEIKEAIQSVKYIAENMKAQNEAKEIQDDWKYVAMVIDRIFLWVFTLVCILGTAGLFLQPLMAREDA
T2 sequence (P30926 22-498): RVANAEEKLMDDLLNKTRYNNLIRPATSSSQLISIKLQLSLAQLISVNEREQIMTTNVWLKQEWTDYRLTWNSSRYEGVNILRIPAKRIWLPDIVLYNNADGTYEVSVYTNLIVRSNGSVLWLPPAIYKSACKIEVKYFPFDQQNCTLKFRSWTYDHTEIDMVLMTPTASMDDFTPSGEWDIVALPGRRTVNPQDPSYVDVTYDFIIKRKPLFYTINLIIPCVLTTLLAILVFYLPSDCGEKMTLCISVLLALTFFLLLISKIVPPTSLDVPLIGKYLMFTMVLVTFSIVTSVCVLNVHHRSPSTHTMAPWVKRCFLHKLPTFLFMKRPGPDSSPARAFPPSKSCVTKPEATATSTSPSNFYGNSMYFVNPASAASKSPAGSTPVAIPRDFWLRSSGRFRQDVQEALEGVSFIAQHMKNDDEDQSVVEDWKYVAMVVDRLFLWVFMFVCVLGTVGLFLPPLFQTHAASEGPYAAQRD
Protocol: Protocol for the Determination of Ability of Nicotinic Acetylcholine Receptor Ligands to Activate Peripheral Ganglionic Receptors
Cells of the IMR-32 human neuroblastoma clonal cell line (ATCC, Rockville, Md.) were maintained in a log phase of growth according to established procedures. Experimental cells were seeded at a density of 500,000 cells/mL into a 24-well tissue culture dish. Plated cells were allowed to proliferate for at least 48 hours before loading with 2 μCi/mL of ^86Rb^+ (35 Ci/mmol) overnight at 37° C. The ^86Rb^+ efflux assays were performed according to previously published protocols (Lukas, R. J., J. Pharmacol. Exp. Ther., 265: 294-302, 1993) except serum-free Dulbecco's Modified Eagle's Medium was used during the ^86Rb^+ loading, rinsing, and agonist-induced efflux steps. Data reflect the activation of ^86Rb^+ flux at a concentration of 1 μM, and reflect the response as a percentage of the maximum response elicited by (S)-nicotine.

mice = assay: Mouse Hot Plate Paradigm; assay type: in vivo; parameters: key to MED Hot plate model (μmol/kg, i.p.): NS = no significant effect observed relative to saline controls at the doses tested; conditions: 30 minutes prior to testing, 55° C.; for minimal effective dose: ip, 0.5 h, i.p., read-out: MED Hot plate model (μmol/kg, i.p.)
[3] = [3H]-cytisine 1.25 nM, whole rat brain membranes, read-out: [3H] CYT Ki

With `Cc1cncc(OC[C@@H]2CCN2)c1` [Example 13, 5-Methyl-3-((2S)-Azetidinylmethyloxy)pyridine dibenzoate] the Ki [1, 3] was 0.05 nM, the “IMR-32 % maximal nicotine response at 1 μM Cmpd conc'n” value (“IMR-32 % maximal nicotine response” below) [2] was 27% and the “MED Hot plate model (μmol/kg, i.p.)” value (mice) was “NS”.

For `Fc1cncc(OC[C@H]2CCN2)c1` [Example 11, 5-((2R)-Azetidinylmethyloxy)-3-fluoropyridine dibenzoate], the Ki [1, 3] was 0.34 nM, the “IMR-32 % maximal nicotine response” value [2] was 31% and the “MED Hot plate model (μmol/kg, i.p.)” value (mice) was “NS”.

Molecule `C=Cc1cncc(OC[C@@H]2CCN2)c1` (as salt: hydrochloride) [Example 22, 5-Vinyl-3-((2S)-Azetidinylmethyloxy)lpyridine dihydrochloride] has a melting point of 88 to 90 °C.

`C=Cc1cc(OC[C@@H]2CCN2)cnc1C` (as salt: hydrochloride) [Example 35, 6-Methyl-5-vinyl-3-((2S)-azetidinylmethoxy)pyridine hydrochloride] showed a melting point of 154 to 155 °C.

`Fc1cncc(OC[C@@H]2CCN2)c1` (as salt: hydrochloride) [Example 10, 5-((2S)-Azetidinylmethyloxy)-3-fluoropyridine dihydrochloride] gave a melting point of 165 to 167 °C.

With `C#Cc1cc(OC[C@@H]2CCN2)cnc1Cl` (as salt: hydrochloride) [Example 30, 2-Chloro-3-ethynyl-5-((2S)-azetidinylmethoxy)pyridine hydrochloride] the melting point was 90 °C (dec.).

`Fc1cncc(OC[C@H]2CCN2)c1` (as salt: salt) [Example 11, 5-((2R)-Azetidinylmethyloxy)-3-fluoropyridine dibenzoate] showed a melting point of 163 to 165 °C.

For `COc1ccc(OC[C@H]2CCN2)cn1` [Example 119, 6-Methoxy-3-(2(R)-azetidinylmethoxy)pyridine], the Ki [1, 3] was 0.67 nM and the melting point was 139 to 142 °C.

Molecule `Clc1cc(OC[C@H]2CCN2)cnc1Cl` (as salt: hydrochloride) [Example 16, 5-((2R)-azetidinylmethoxy)-2,3-dichloropyridine hydrochloride] has a melting point of 166 to 168 °C.

Work on `Fc1ncc(OCC2CCN2)cc1Cl` (stereo not shown) (as salt: tosylate) [Example 33, 5-((29)-azetidinylmethoxy)-3-chloro-2-fluoropyridine tosylate] yielded a melting point of 99 °C.

In the case of `CCc1cc(OC[C@@H]2CCN2)cnc1F` (as salt: tosylate) [Example 126, 5-ethyl-6-fluoro-3-(2-(S)-azetidinylmethoxy)pyridine], the melting point is reported as 106 to 108 °C.

`C#Cc1cc(OC[C@@H]2CCN2)cnc1Cl` [Example 30, 2-Chloro-3-ethynyl-5-((2S)-azetidinylmethoxy)pyridine hydrochloride] showed a Ki [1, 3] of 0.04 nM and a minimal effective dose (mice) of 6.2 µmol/kg.

For `Clc1ncc(OC[C@H]2CCN2)cc1Br` [Example 18, 5-((2R)-azetidinylmethoxy)-3-bromo-2-chloropyridine hydrochloride], the Ki [1, 3] was 0.02 nM, the “IMR-32 % maximal nicotine response” value [2] was 93% and the minimal effective dose (mice) was 0.62 µmol/kg.

With `CCc1cc(OC[C@@H]2CCN2)cnc1Cl` [Example 27, 2-Chloro-3-ethyl-5-((2S)-azetidinylmethoxy)pyridine hydrochloride] the Ki [1, 3] was 0.04 nM and the “MED Hot plate model (μmol/kg, i.p.)” value (mice) was “NS”.

With `C=Cc1cc(OC[C@@H]2CCN2)cnc1C` [Example 35, 6-Methyl-5-vinyl-3-((2S)-azetidinylmethoxy)pyridine hydrochloride] the Ki [1, 3] was 0.22 nM and the “MED Hot plate model (μmol/kg, i.p.)” value (mice) was “NS”.

`CCc1cc(OC[C@@H]2CCN2)cnc1Cl` (as salt: hydrochloride) [Example 27, 2-Chloro-3-ethyl-5-((2S)-azetidinylmethoxy)pyridine hydrochloride] showed a melting point of 102 to 104 °C.

Molecule `CCCc1cc(OC[C@@H]2CCN2)cnc1Cl` (as salt: hydrochloride) [Example 28, 2-Chloro-3-propyl-5-((2S)-azetidinylmethoxy)pyridine hydrochloride] has a melting point of 148 to 150 °C.

`CCCc1cncc(OC[C@@H]2CCN2)c1` (as salt: hydrochloride) [Example 24, 5-Propyl-3-((2S)-azetidinylmethyloxy)lpyridine hydrochloride] gave a melting point of 79 to 80 °C.

`CCCCc1cc(OC[C@@H]2CCN2)cnc1Cl` (as salt: hydrochloride) [Example 29, 3-Butyl-2-chloro-5-((2S)-azetidinylmethoxy)pyridine hydrochloride] gave a melting point of 88 to 90 °C.

For `CCCc1cc(OC[C@@H]2CCN2)cnc1Cl` [Example 28, 2-Chloro-3-propyl-5-((2S)-azetidinylmethoxy)pyridine hydrochloride], the Ki [1, 3] was 0.03 nM and the “MED Hot plate model (μmol/kg, i.p.)” value (mice) was “NS”.

Work on `Fc1ncc(OC[C@H]2CCN2)cc1Br` (as salt: tosylate) [Example 125, 5-bromo-6-fluoro-3-(2-(R)-azetidinylmethoxy)pyridine] yielded a melting point of 238 to 240 °C.

Work on `Clc1cc(OC[C@@H]2CCN2)cnc1Cl` (as salt: hydrochloride) [Example 15, 5-((2S)-azetidinylmethoxy)-2,3-dichloropyridine hydrochloride] yielded a melting point of 181 to 182 °C.

Work on `C=Cc1cc(OC[C@@H]2CCN2)cnc1Cl` [Example 26, 2-Chloro-3-vinyl-5-((2S)-azetidinylmethoxy)pyridine hydrochloride] yielded a Ki [1, 3] of 0.24 nM and a minimal effective dose (mice) of 1.9 µmol/kg.

Work on `c1cncc(OC[C@@H]2CCN2)c1` [Example 7, (S)-3-(2-Azetidinylmethyloxy)pyridine dihydrochloride] yielded a Ki [1] of 0.04 nM and a minimal effective dose (mice) of 6.2 µmol/kg.

In the case of `CCc1cc(OC[C@@H]2CCN2)cnc1C` (as salt: hydrochloride) [Example 36, 6-Ethyl-6-methyl-3-((2S)-azetidinylmethoxy)pyridine hydrochloride], the melting point is reported as 150 to 153 °C.

Molecule `Fc1ccc(OC[C@@H]2CCN2)c(F)n1` (as salt: tosylate) [Example 116, 2.6-Difluoro-3-(2-(S)-azetidinylmethoxy)pyridine tosylate] has a melting point of 140 to 143 °C.

In the case of `CCc1cncc(OC[C@@H]2CCN2)c1` [Example 23, 5-Ethyl-3-((2S)-Azetidinylmethyloxy)lpyridine hydrochloride], the Ki [1, 3] is reported as 0.11 nM and the “MED Hot plate model (μmol/kg, i.p.)” value (mice) is reported as “NS”.

`Cc1ccc(OC[C@H]2CCN2)cn1` (as salt: HCl) [Example 115, 6-Methyl-3-(2-(R)-azetidinylmethoxy)pyridine] gave a melting point of 134 to 136 °C.

In the case of `Cc1cc(OC[C@@H]2CCN2)cnc1F` (as salt: salt) [Example 32, 5-((2S)-azetidinylmethoxy)-3-methyl-2-fluoropyridine benzoate], the melting point is reported as 104 to 108 °C.

For `C=Cc1cc(OC[C@@H]2CCN2)cnc1Cl` (as salt: hydrochloride) [Example 26, 2-Chloro-3-vinyl-5-((2S)-azetidinylmethoxy)pyridine hydrochloride], the melting point was 121 °C (dec.).

`Fc1ncc(OC[C@@H]2CCN2)cc1Br` [Example 31, 5-((2S)-azetidinylmethoxy)-3-bromo-2-fluoropyridine dibenzoic acid salt] showed a Ki [1, 3] of 0.03 nM and a minimal effective dose (mice) of 6.2 µmol/kg.

In the case of `Brc1cncc(OC[C@@H]2CCN2)c1` (as salt: hydrochloride) [Example 12, 5-((2S)-Azetidinylmethyloxy)-3-bromopyridine dihydrochloride], the melting point is reported as 163 to 165 °C.

In the case of `Cc1ccc(OC[C@@H]2CCN2)cn1` (as salt: hydrochloride) [Example 20, 5-((2S)-Azetidinylmethyloxy)-2-methylpyridine dihydrochloride], the melting point is reported as 141 to 144 °C.

With `Clc1ncc(OC[C@@H]2CCN2)cc1Br` (as salt: hydrochloride) [Example 17, 5-((2S)-azetidinylmethoxy)-3-bromo-2-chloropyridine hydrochloride] the melting point was 168 to 169 °C.

In the case of `Cl.O=[N+]([O-])c1cncc(OC[C@@H]2CCN2)c1` [Example 132, 5-nitro-3-(2-(S)-azetidinylmethoxy)pyridine hydrochloride], the Ki [1, 3] is reported as 0.33 nM and the melting point is reported as 162 to 164 °C (dec.).

For `Clc1ncc(OC[C@H]2CCN2)cc1Br` (as salt: hydrochloride) [Example 18, 5-((2R)-azetidinylmethoxy)-3-bromo-2-chloropyridine hydrochloride], the melting point was 175 °C.

— US6403575B1, “3-Pyridyl enantiomers and their use as analgesics” (Abbott Laboratories, priority 1996, dated 2002)
